Test results as given in paper PMC9109478 (2022).

Key:
[1] = system: hRAS1 (DNA, G4) TCGGGTTGCGGGCGCAGGGCACGGGCG; assay: ESI-MS; conditions: K+ 1 mM; 100 mM TMAA, 50% methanol; 20 μM strand
[2] = system: ODN-51 (DNA, G4) TAGGGTTAGGGTTAGGGTTAGGG; assay: ESI-MS; conditions: K+ 1 mM; 100 mM TMAA, 50% methanol; 20 μM strand
[3] = system: NRAS (RNA, G4) UGUGGGAGGGGCGGGUCUGGG; assay: CD melting; conditions: K+ 100 mM; 10 mM Tris, pH 7.4; NRAS 5 μM; TPE-B : G4 1:1
[4] = system: hRAS1 (DNA, G4) TCGGGTTGCGGGCGCAGGGCACGGGCG; assay: CD melting; conditions: K+ 100 mM; 10 mM Tris, pH 7.4; G4 15 μM; TPE-B : G4 1:1

- binding [1]: weak
- binding [2]: weak
- ΔTm [3]: 13.51 °C
- ΔTm [4]: 0.07 °C
Structure (SMILES): CN(C)c1cc[n+](CCCCOc2ccc(C(=C(c3ccc(OCCCC[n+]4ccc(N(C)C)cc4)cc3)c3ccc(OCCCC[n+]4ccc(N(C)C)cc4)cc3)c3ccc(OCCCC[n+]4ccc(N(C)C)cc4)cc3)cc2)cc1
